Test results: patent publication US4068070A, “α-Cyanoamine compounds and a process for producing the same” (Fuji Chemical Industry Co., Ltd., priority 1974, dated 1978)

Columns and labels:
Format in all cases: in vivo, mongrel adult dogs
[1] = test system: coronary sinus oxygen tension; experiment: Effects on coronary sinus oxygen tension
Procedure: (§1) All experiments were made on male and female thoractomized mongrel adult dogs weighing about 10 kg. under anesthesia with pentobarbital sodium. Compounds A, D, E and F were suspended in 0.2% CMC solution, Compound B dissolved in hydrochloric acid solution (pH 6), and Compound C and active placebo being dissolved in physiological saline solution. Animals were administered the drug intravenously on brachiuma with either test compound or active placebo.
(§2) Arterial blood pressure was measured by pressure transducer (Nippon Koden MPU-0.5) connected with the cannula inserted from exposed carotid artery into aorta. Aortic blood flow was determined by means of electromagnetic flow meter (Nippon Koden MF-5) mounted at the origin of the aorta. Coronary sinus out flow and coronary sinus oxygen tension were assessed by means of electromagnetic flow meter (Nippon Koden MF-5) and P02 macro electrode (Beokmann Moder 160-C), respectively using Morawitz cannulization technique. Heart rate was measured by cardiotachometer (Nippon Koden RT-2) synchronized with systolic blood pressure of aorta.

[2] = test system: heart rate; experiment: Effects on heart rate
Procedure: as §1, §2

[3] = test system: aortic blood flow; experiment: Effects on aortic blood flow
Procedure: as §1, §2

[4] = test system: coronary sinus out flow; experiment: Effects on coronary sinus out flow
Procedure: as §1, §2

[5] = test system: arterial mean blood pressure; experiment: Effects on arterial mean blood pressure
Procedure: as §1, §2

CCOC(=O)N1CCN(C(C#N)c2ccc(OC)c(OC)c2)CC1 (centres unmarked) [Compound A]
Changes(%) of basal values, coronary sinus oxygen tension ([1]; 2.0 mg/kg i.v., 1 min): +15.2%
Changes(%) of basal values, coronary sinus oxygen tension ([1]; 2.0 mg/kg i.v., 5 min): +13.8%
Changes(%) of basal values, coronary sinus oxygen tension ([1]; 2.0 mg/kg i.v., 10 min): +12.5%
Changes(%) of basal values, coronary sinus oxygen tension ([1]; 2.0 mg/kg i.v., 20 min): +12.0%
Changes(%) of basal values, coronary sinus oxygen tension ([1]; 2.0 mg/kg i.v., 30 min): +12.0%
Changes(%) of basal values, coronary sinus oxygen tension ([1]; 2.0 mg/kg i.v., imm.): +11.2%
Changes(%) of basal values, coronary sinus oxygen tension ([1]; 6.0 mg/kg i.v., 1 min): +27.5%
Changes(%) of basal values, coronary sinus oxygen tension ([1]; 6.0 mg/kg i.v., 5 min): +27.0%
Changes(%) of basal values, coronary sinus oxygen tension ([1]; 6.0 mg/kg i.v., 10 min): +30.0%
Changes(%) of basal values, coronary sinus oxygen tension ([1]; 6.0 mg/kg i.v., 20 min): +19.6%
Changes(%) of basal values, coronary sinus oxygen tension ([1]; 6.0 mg/kg i.v., 30 min): +13.5%
Changes(%) of basal values, coronary sinus oxygen tension ([1]; 6.0 mg/kg i.v., imm.): +18.0%
Changes(%) of basal values, coronary sinus oxygen tension ([1]; 20.0 mg/kg i.v., 1 min): +47.2%
Changes(%) of basal values, coronary sinus oxygen tension ([1]; 20.0 mg/kg i.v., 5 min): +39.0%
Changes(%) of basal values, coronary sinus oxygen tension ([1]; 20.0 mg/kg i.v., 10 min): +91.7%
Changes(%) of basal values, coronary sinus oxygen tension ([1]; 20.0 mg/kg i.v., 20 min): +72.5%
Changes(%) of basal values, coronary sinus oxygen tension ([1]; 20.0 mg/kg i.v., 30 min): +56.9%
Changes(%) of basal values, coronary sinus oxygen tension ([1]; 20.0 mg/kg i.v., imm.): +31.6%
Effects on coronary sinus oxygen tension (in words) ([1]; i.v., anesthetized dogs): a significant increase in coronary sinus oxygen tension, effect of which was of long duration
Changes(%) of basal values, heart rate ([2]; 2.0 mg/kg i.v., 1 min): -4.7%
Changes(%) of basal values, heart rate ([2]; 2.0 mg/kg i.v., 5 min): -0.6%
Changes(%) of basal values, heart rate ([2]; 2.0 mg/kg i.v., 10 min): -0.4%
Changes(%) of basal values, heart rate ([2]; 2.0 mg/kg i.v., 20 min): 0%
Changes(%) of basal values, heart rate ([2]; 2.0 mg/kg i.v., 30 min): 0%
Changes(%) of basal values, heart rate ([2]; 2.0 mg/kg i.v., imm.): -5.2%
Changes(%) of basal values, heart rate ([2]; 6.0 mg/kg i.v., 1 min): -3.9%
Changes(%) of basal values, heart rate ([2]; 6.0 mg/kg i.v., 5 min): -2.3%
Changes(%) of basal values, heart rate ([2]; 6.0 mg/kg i.v., 10 min): -0.9%
Changes(%) of basal values, heart rate ([2]; 6.0 mg/kg i.v., 20 min): +1.0%
Changes(%) of basal values, heart rate ([2]; 6.0 mg/kg i.v., 30 min): +1.0%
Changes(%) of basal values, heart rate ([2]; 6.0 mg/kg i.v., imm.): -5.0%
Changes(%) of basal values, heart rate ([2]; 20.0 mg/kg i.v., 1 min): +1.5%
Changes(%) of basal values, heart rate ([2]; 20.0 mg/kg i.v., 5 min): 0%
Changes(%) of basal values, heart rate ([2]; 20.0 mg/kg i.v., 10 min): -1.8%
Changes(%) of basal values, heart rate ([2]; 20.0 mg/kg i.v., 20 min): -6.0%
Changes(%) of basal values, heart rate ([2]; 20.0 mg/kg i.v., 30 min): -6.7%
Changes(%) of basal values, heart rate ([2]; 20.0 mg/kg i.v., imm.): -7.0%
Effects on heart rate (in words) ([2]; i.v., anesthetized dogs): a slight negative chronotropic effect
Changes (%) of basal values, aortic blood flow ([3]; 2.0 mg/kg i.v., 1 min): +4.3%
Changes (%) of basal values, aortic blood flow ([3]; 2.0 mg/kg i.v., 5 min): +3.7%
Changes (%) of basal values, aortic blood flow ([3]; 2.0 mg/kg i.v., 10 min): +2.3%
Changes (%) of basal values, aortic blood flow ([3]; 2.0 mg/kg i.v., 20 min): +1.0%
Changes (%) of basal values, aortic blood flow ([3]; 2.0 mg/kg i.v., 30 min): +1.0%
Changes (%) of basal values, aortic blood flow ([3]; 2.0 mg/kg i.v., imm.): +0.5%
Changes (%) of basal values, aortic blood flow ([3]; 6.0 mg/kg i.v., 1 min): +5.8%
Changes (%) of basal values, aortic blood flow ([3]; 6.0 mg/kg i.v., 5 min): +3.7%
Changes (%) of basal values, aortic blood flow ([3]; 6.0 mg/kg i.v., 10 min): +0.1%
Changes (%) of basal values, aortic blood flow ([3]; 6.0 mg/kg i.v., 20 min): -0.2%
Changes (%) of basal values, aortic blood flow ([3]; 6.0 mg/kg i.v., 30 min): +0.2%
Changes (%) of basal values, aortic blood flow ([3]; 6.0 mg/kg i.v., imm.): +4.3%
Changes (%) of basal values, aortic blood flow ([3]; 20.0 mg/kg i.v., 1 min): +7.3%
Changes (%) of basal values, aortic blood flow ([3]; 20.0 mg/kg i.v., 5 min): +10.2%
Changes (%) of basal values, aortic blood flow ([3]; 20.0 mg/kg i.v., 10 min): +8.0%
Changes (%) of basal values, aortic blood flow ([3]; 20.0 mg/kg i.v., 20 min): +3.3%
Changes (%) of basal values, aortic blood flow ([3]; 20.0 mg/kg i.v., 30 min): +1.0%
Changes (%) of basal values, aortic blood flow ([3]; 20.0 mg/kg i.v., imm.): +6.1%
increased aortic blood flow ([3]; during the course of observation period, i.v.): 2-8%
Changes(%) of basal values, coronary sinus out flow ([4]; 2.0 mg/kg i.v., 1 min): +7.6%
Changes(%) of basal values, coronary sinus out flow ([4]; 2.0 mg/kg i.v., 5 min): +5.4%
Changes(%) of basal values, coronary sinus out flow ([4]; 2.0 mg/kg i.v., 10 min): +4.7%
Changes(%) of basal values, coronary sinus out flow ([4]; 2.0 mg/kg i.v., 20 min): +4.0%
Changes(%) of basal values, coronary sinus out flow ([4]; 2.0 mg/kg i.v., 30 min): +3.5%
Changes(%) of basal values, coronary sinus out flow ([4]; 2.0 mg/kg i.v., imm.): +10.9%
Changes(%) of basal values, coronary sinus out flow ([4]; 6.0 mg/kg i.v., 1 min): +16.6%
Changes(%) of basal values, coronary sinus out flow ([4]; 6.0 mg/kg i.v., 5 min): +17.0%
Changes(%) of basal values, coronary sinus out flow ([4]; 6.0 mg/kg i.v., 10 min): +18.0%
Changes(%) of basal values, coronary sinus out flow ([4]; 6.0 mg/kg i.v., 20 min): +8.5%
Changes(%) of basal values, coronary sinus out flow ([4]; 6.0 mg/kg i.v., 30 min): +8.0%
Changes(%) of basal values, coronary sinus out flow ([4]; 6.0 mg/kg i.v., imm.): +12.0%
Changes(%) of basal values, coronary sinus out flow ([4]; 20.0 mg/kg i.v., 1 min): +34.3%
Changes(%) of basal values, coronary sinus out flow ([4]; 20.0 mg/kg i.v., 5 min): +48.3%
Changes(%) of basal values, coronary sinus out flow ([4]; 20.0 mg/kg i.v., 10 min): +47.1%
Changes(%) of basal values, coronary sinus out flow ([4]; 20.0 mg/kg i.v., 20 min): +30.0%
Changes(%) of basal values, coronary sinus out flow ([4]; 20.0 mg/kg i.v., 30 min): +11.8%
Changes(%) of basal values, coronary sinus out flow ([4]; 20.0 mg/kg i.v., imm.): +18.5%
Effects on coronary sinus out flow (in words) ([4]; i.v., anesthetized dogs): a marked increasing effect on coronary sinus out flow, which was proportioned to doses thereof and of long duration
Changes (%) of basal values, arterial mean blood pressure ([5]; 2.0 mg/kg i.v., 1 min): -1.5%
Changes (%) of basal values, arterial mean blood pressure ([5]; 2.0 mg/kg i.v., 5 min): -2.6%
Changes (%) of basal values, arterial mean blood pressure ([5]; 2.0 mg/kg i.v., 10 min): -4.2%
Changes (%) of basal values, arterial mean blood pressure ([5]; 2.0 mg/kg i.v., 20 min): -3.8%
Changes (%) of basal values, arterial mean blood pressure ([5]; 2.0 mg/kg i.v., 30 min): -4.5%
Changes (%) of basal values, arterial mean blood pressure ([5]; 2.0 mg/kg i.v., imm.): -4.0%
Changes (%) of basal values, arterial mean blood pressure ([5]; 6.0 mg/kg i.v., 1 min): -3.4%
Changes (%) of basal values, arterial mean blood pressure ([5]; 6.0 mg/kg i.v., 5 min): -5.2%
Changes (%) of basal values, arterial mean blood pressure ([5]; 6.0 mg/kg i.v., 10 min): -6.0%
Changes (%) of basal values, arterial mean blood pressure ([5]; 6.0 mg/kg i.v., 20 min): -5.2%
Changes (%) of basal values, arterial mean blood pressure ([5]; 6.0 mg/kg i.v., 30 min): -3.0%
Changes (%) of basal values, arterial mean blood pressure ([5]; 6.0 mg/kg i.v., imm.): -4.2%
Changes (%) of basal values, arterial mean blood pressure ([5]; 20.0 mg/kg i.v., 1 min): -16.9%
Changes (%) of basal values, arterial mean blood pressure ([5]; 20.0 mg/kg i.v., 5 min): -16.9%
Changes (%) of basal values, arterial mean blood pressure ([5]; 20.0 mg/kg i.v., 10 min): -16.0%
Changes (%) of basal values, arterial mean blood pressure ([5]; 20.0 mg/kg i.v., 20 min): -17.0%
Changes (%) of basal values, arterial mean blood pressure ([5]; 20.0 mg/kg i.v., 30 min): -14.9%
Changes (%) of basal values, arterial mean blood pressure ([5]; 20.0 mg/kg i.v., imm.): -14.5%
Effects on arterial mean blood pressure (in words) ([5]; i.v., anesthetized dogs): hypotensive effects being proportioned to their doses which were of long duration
